Measured values: patent US20190030036A1, “PHOSPHODIESTERASE INHIBITOR TREATMENT” (Cyrano Therapeutics, Inc., priority 2013, published 2019)
Marks after values point to notes of the source that are not given here.

System: patients with hyposmia
Assay: Smell function (DT, RT, ME, H) by forced-choice, three-stimuli, stepwise-staircase technique with four odors; open trial of oral theophylline
Format: in vivo, human
Excerpt: Patients initially reported their sensory dysfunction as either loss of taste (e.g., flavor) and/or smell function. This subjective response was documented by objective psychophysical measurements of olfactory function administered to each patient by use of a forced-choice, three-stimuli, stepwise-staircase technique in a fixed, controlled design (1, 53). Efficacy of this technique and results of testing were previously documented in a double-blind clinical trial (53). Four odors were used; they were pyridine (dead-fish odor), nitrobenzene (bitter-almond odor), thiophene (petroleum-like odor) and amyl acetate (banana-oil odor). Detection thresholds (DT), recognition thresholds (RT) and magnitude estimation (ME) values for each odor were determined as previously described (1, 53). Thresholds were converted into bottle units (BU) as previously described (53) and results reported as M±SEM of correct responses for each odor in each treatment group; ME was reported in % and results calculated to obtain M±SEM for each treatment group for all correct responses using data for the four highest odor concentrations presented (from 10^−2M—an absolute odor concentration).
In addition, each patient graded the hedonic (H) value of each odor presented for these same odor concentrations (from 10^−2M—an absolute odor concentration using a −100−0−+100 scale). […] Results were obtained by calculating the arithmetical sum of each correct recognition response for each odor with respect to its pleasantness, unpleasantness or neutrality. Arithmetic M±SEM were obtained for each treatment group for each odor presented.
After determination of hyposmia, patients were treated in an open label, fixed design, controlled open trial. Patients were given an oral extended release theophylline in divided daily doses taken in the middle of breakfast and lunch. All patients were initially given 200 mg of theophylline; changes in this dose were made based upon subjective responses to therapy. If at a subsequent return visit, patients reported ≥5% subjective improvement in overall smell function, they continued on this same dose of theophylline and were reevaluated after four to six months of continued treatment. Results from any subsequent return from these improved patients were not included in any subsequent data report. All subsequent comparisons between treated and untreated patients were made only between those patients continuing in the study compared to their own measurements obtained in the untreated state. If patients reported <5% subjective improvement, their theophylline dose was increased by 200 mg daily and they were scheduled for retesting at the study site after two to four months at this new dosage. For patients that reported <5% improvement, this sequence continued until patients reached 800 mg of theophylline, at which time the study was considered completed.
Patients returned for reevaluation after two to four months of treatment. Measurements of blood serum theophylline were measured by a fluorescence polarization assay (Abbott, Chicago, Ill.). At this time, subjective changes in smell function were measured independently (compared to patient's memory of previous normal smell function monitored by use of the patients' daily measurements) using the scale from −100−0-+100 previously described. After independently recording their subjective responses, smell function was measured for all four odors with DT, RT, ME and H determined without recourse to prior measurements.
Since data for all measurements from each patient group (local or distant) on each dose level were combined mean and SEM for each measurement (DT, RT, ME, H) of smell function for each treatment group were calculated on this basis. Differences in measurements between before treatment and each treatment level were calculated and significance of differences estimated using Student t tests (values p<0.05 considered significant). […]

[1] = pyridine, oral theophylline 200 mg
[2] = pyridine, oral theophylline 200 mg daily, all patients (199)
[3] = pyridine, oral theophylline 200 mg, Type I hyposmia (57)
[4] = pyridine, oral theophylline 200 mg, Type II hyposmia (138)
[5] = pyridine, oral theophylline 200 mg, Type III hyposmia (4)
[6] = pyridine, oral theophylline 400 mg
[7] = pyridine, oral theophylline 400 mg daily, all patients (120)
[8] = pyridine, oral theophylline 400 mg, Type I hyposmia (33)
[9] = pyridine, oral theophylline 400 mg, Type II hyposmia (85)
[10] = pyridine, oral theophylline 400 mg, Type III hyposmia (2)
[11] = pyridine, oral theophylline 600 mg daily, all patients (160)
[12] = pyridine, oral theophylline 600 mg, Type I hyposmia (51)
[13] = pyridine, oral theophylline 600 mg, Type II hyposmia (105)
[14] = pyridine, oral theophylline 600 mg, Type III hyposmia (4)
[15] = pyridine, oral theophylline 800 mg daily, all patients (28)
[16] = pyridine, oral theophylline 800 mg, Type I hyposmia (12)
[17] = pyridine, oral theophylline 800 mg, Type II hyposmia (16)
[18] = thiophene, oral theophylline 200 mg
[19] = thiophene, oral theophylline 200 mg daily, all patients (199)
[20] = thiophene, oral theophylline 200 mg, Type I hyposmia (57)
[21] = thiophene, oral theophylline 200 mg, Type II hyposmia (138)
[22] = thiophene, oral theophylline 200 mg, Type III hyposmia (4)
[23] = thiophene, oral theophylline 400 mg
[24] = thiophene, oral theophylline 400 mg daily, all patients (120)
[25] = thiophene, oral theophylline 400 mg, Type I hyposmia (33)
[26] = thiophene, oral theophylline 400 mg, Type II hyposmia (85)
[27] = thiophene, oral theophylline 400 mg, Type III hyposmia (2)
[28] = thiophene, oral theophylline 600 mg daily, all patients (160)
[29] = thiophene, oral theophylline 600 mg, Type I hyposmia (51)
[30] = thiophene, oral theophylline 600 mg, Type II hyposmia (105)
[31] = thiophene, oral theophylline 600 mg, Type III hyposmia (4)
[32] = thiophene, oral theophylline 800 mg daily, all patients (28)
[33] = thiophene, oral theophylline 800 mg, Type I hyposmia (12)
[34] = thiophene, oral theophylline 800 mg, Type II hyposmia (16)

Cn1c(=O)c2[nH]cnc2n(C)c1=O [theophylline]
total mean increase of ME for all odors (oral theophylline 600 mg): 6.9%
decrease of H for pyridine (oral theophylline 800 mg daily): 55%
decrease of H for thiophene (oral theophylline 800 mg daily): 37%
increase of H for amyl acetate (oral theophylline 800 mg daily): about 50%
increase of H for nitrobenzene (oral theophylline 800 mg daily): about 50%
decrease of H values [1]: 2%
increase of ME values [1]: 6%
DT, detection threshold [2]: 7.6 ± 0.2^a BU
H, hedonic estimation [2]: −22 ± 2^a %
ME, magnitude estimation [2]: 28 ± 2^a %
RT, recognition threshold [2]: 9.0 ± 0.2^a BU
DT, detection threshold [3]: 9.5 ± 0.2^ BU
H, hedonic value [3]: −8 ± 2^a %
ME, magnitude estimation [3]: 11 ± 2^a %
RT, recognition threshold [3]: 11.0 ± 0.2^a BU
DT, detection threshold [4]: 6.9 ± 0.2^ BU
H, hedonic value [4]: −28 ± 2^ %
ME, magnitude estimation [4]: 35 ± 2^ %
RT, recognition threshold [4]: 8.2 ± 0.2^a BU
DT, detection threshold [5]: 4.0 ± 0.6 BU
H, hedonic value [5]: −40 ± 13%
ME, magnitude estimation [5]: 45 ± 11%
RT, recognition threshold [5]: 5.2 ± 0.5 BU
ME increases [6]: 12%
increases in H values [6]: 9%
DT, detection threshold [7]: 7.0 ± 0.3^c BU
H, hedonic estimation [7]: −26 ± 3^b %
ME, magnitude estimation [7]: 33 ± 3^a %
RT, recognition threshold [7]: 8.5 ± 0.3^a BU
DT, detection threshold [8]: 8.8 ± 0.5^ BU
H, hedonic value [8]: −7 ± 3^a %
ME, magnitude estimation [8]: 12 ± 3^a %
RT, recognition threshold [8]: 10.6 ± 0.4^ BU
DT, detection threshold [9]: 6.3 ± 0.3^a BU
H, hedonic value [9]: −34 ± 3^ %
ME, magnitude estimation [9]: 41 ± 3^a %
RT, recognition threshold [9]: 7.7 ± 0.3^a BU
DT, detection threshold [10]: 5.0 BU
H, hedonic value [10]: −40%
ME, magnitude estimation [10]: 45%
RT, recognition threshold [10]: 5.0 BU
DT, detection threshold [11]: 7.4 ± 0.2^c BU
H, hedonic estimation [11]: −19 ± 2^ %
ME, magnitude estimation [11]: 26 ± 2^d %
RT, recognition threshold [11]: 9.4 ± 0.2^c BU
DT, detection threshold [12]: 8.9 ± 0.3^b BU
H, hedonic value [12]: −8 ± 2^a %
ME, magnitude estimation [12]: 11 ± 3^a %
RT, recognition threshold [12]: 10.9 ± 0.3^ BU
DT, detection threshold [13]: 6.7 ± 0.3^a BU
H, hedonic value [13]: −25 ± 3^ %
ME, magnitude estimation [13]: 33 ± 2^ %
RT, recognition threshold [13]: 8.9 ± 0.3^ BU
DT, detection threshold [14]: 3.8 ± 0.9 BU
H, hedonic value [14]: −26 ± 22%
ME, magnitude estimation [14]: 41 ± 15%
RT, recognition threshold [14]: 5.5 ± 0.9 BU
DT, detection threshold [15]: 6.9 ± 0.6 BU
H, hedonic estimation [15]: −22 ± 6%
ME, magnitude estimation [15]: 29 ± 5%
RT, recognition threshold [15]: 8.5 ± 0.6^c BU
DT, detection threshold [16]: 9.6 ± 0.8^ BU
H, hedonic value [16]: −11 ± 5^a %
ME, magnitude estimation [16]: 10 ± 4^a %
RT, recognition threshold [16]: 10.3 ± 1.0^ BU
DT, detection threshold [17]: 4.7 ± 0.7^a BU
H, hedonic value [17]: −31 ± 9^ %
ME, magnitude estimation [17]: 43 ± 5^c %
RT, recognition threshold [17]: 7.1 ± 0.7^a BU
decrease of H values [18]: 2%
increase of ME values [18]: 5%
DT, detection threshold [19]: 7.5 ± 0.2^c BU
H, hedonic estimation [19]: −15 ± 2^d %
ME, magnitude estimation [19]: 21 ± 2 ^ %
RT, recognition threshold [19]: 9.1 ± 0.2^c BU
DT, detection threshold [20]: 10.1 ± 0.3^d BU
H, hedonic value [20]: −3 ± 2^a %
ME, magnitude estimation [20]: 6 ± 2^a %
RT, recognition threshold [20]: 11.4 ± 0.2^ BU
DT, detection threshold [21]: 6.5 ± 0.3^ BU
H, hedonic value [21]: −19 ± 2^ %
ME, magnitude estimation [21]: 27 ± 2^ %
RT, recognition threshold [21]: 8.2 ± 0.3^a BU
DT, detection threshold [22]: 3.2 ± 0.8 BU
H, hedonic value [22]: −40 ± 18%
ME, magnitude estimation [22]: 47 ± 15%
RT, recognition threshold [22]: 3.8 ± 0.6 BU
ME increases [23]: 12%
increases in H values [23]: 7%
DT, detection threshold [24]: 6.8 ± 0.4^c BU
H, hedonic estimation [24]: −19 ± 2^d %
ME, magnitude estimation [24]: 26 ± 2^c %
RT, recognition threshold [24]: 8.4 ± 0.3^a BU
DT, detection threshold [25]: 9.8 ± 0.5^a BU
H, hedonic value [25]: −5 ± 2^a %
ME, magnitude estimation [25]: 7 ± 2^a %
RT, recognition threshold [25]: 10.8 ± 0.4^ BU
DT, detection threshold [26]: 5.7 ± 0.4^ BU
H, hedonic value [26]: −23 ± 3^ %
ME, magnitude estimation [26]: 31 ± 3^ %
RT, recognition threshold [26]: 7.6 ± 0.4^a BU
DT, detection threshold [27]: 1 BU
H, hedonic value [27]: −99%
ME, magnitude estimation [27]: 99%
RT, recognition threshold [27]: 1 BU
DT, detection threshold [28]: 7.1 ± 0.3^a BU
H, hedonic estimation [28]: −14 ± 2 ^ %
ME, magnitude estimation [28]: 21 ± 2^d %
RT, recognition threshold [28]: 9.0 ± 0.3^c BU
DT, detection threshold [29]: 9.4 ± 0.4^a BU
H, hedonic value [29]: −3 ± 2^a %
ME, magnitude estimation [29]: 7 ± 2^a %
RT, recognition threshold [29]: 10.9 ± 0.3^d BU
DT, detection threshold [30]: 6.1 ± 0.3^a BU
H, hedonic value [30]: −20 ± 2^ %
ME, magnitude estimation [30]: 27 ± 2^ %
RT, recognition threshold [30]: 8.1 ± 0.3^a BU
DT, detection threshold [31]: 2.0 ± 1.0 BU
H, hedonic value [31]: −35 ± 24%
ME, magnitude estimation [31]: 42 ± 20%
RT, recognition threshold [31]: 3.8 ± 0.9 BU
DT, detection threshold [32]: 7.2 ± 0.7 BU
H, hedonic estimation [32]: −15 ± 4%
ME, magnitude estimation [32]: 20 ± 4%
RT, recognition threshold [32]: 9.6 ± 0.6 BU
DT, detection threshold [33]: 10.0 ± 0.7^ BU
H, hedonic value [33]: −4 ± 2^a %
ME, magnitude estimation [33]: 4 ± 2^a %
RT, recognition threshold [33]: 11.6 ± 0.2^ BU
DT, detection threshold [34]: 4.9 ± 0.7^a BU
H, hedonic value [34]: −24 ± 8^ %
ME, magnitude estimation [34]: 33 ± 6^ %
RT, recognition threshold [34]: 8.0 ± 1.0^ BU
